Experimental data reported in PubChem BioAssay AID248 (DTP/NCI, 2004).
Values joined by “and” are separate entries in the source; they are usually repeats but may differ in a detail not shown here. Equal values may be shown once. Inconclusive results and toxic doses are left out. Cut-off read from the data, not from the text of the source: active = T/C of 150% or more; inactive = T/C below 125%. Peptide text beside a SMILES is read from it. * marks the point of attachment. Boc = CC(C)(C)OC(=O)*; Bn = c1ccc(C*)cc1

System: L1210 leukemia ip in BDF1 mice, survival T/C
Experiment: NCI In Vivo Anticancer Drug Screen. Data for tumor model L1210 Leukemia (intraperitoneal) in B6D2F1 (BDF1) mice
Settings: endpoint: mean survival time, higher = longer survival
Outline: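 Value reflects the ratio of survival in compound-treated mice to survival in vehicle-treated controls, with both groups carrying the same transplanted tumor.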

[1] = dose: 100.0 mg/kg/injection, schedule: Q01DX001 (ip), vehicle: Klucel (hydroxypropylcellulose) (HPC)
[2] = dose: 200.0 mg/kg/injection, schedule: Q01DX001 (ip), vehicle: Klucel (hydroxypropylcellulose) (HPC)
[3] = dose: 100.0 mg/kg/injection, schedule: Q04DX002 (ip), vehicle: Klucel (hydroxypropylcellulose) (HPC)
[4] = dose: 200.0 mg/kg/injection, schedule: Q04DX002 (ip), vehicle: Klucel (hydroxypropylcellulose) (HPC)
[5] = dose: 400.0 mg/kg/injection, schedule: Q04DX002 (ip), vehicle: Klucel (hydroxypropylcellulose) (HPC)
[6] = dose: 100.0 mg/kg/injection, schedule: Q01DX009 (ip), vehicle: Klucel (hydroxypropylcellulose) (HPC)
[7] = dose: 100.0 mg/kg/injection, schedule: Q04DX003 (ip), vehicle: Klucel (hydroxypropylcellulose) (HPC)
[8] = dose: 200.0 mg/kg/injection, schedule: Q01DX009 (ip), vehicle: Klucel (hydroxypropylcellulose) (HPC)
[9] = dose: 200.0 mg/kg/injection, schedule: Q04DX003 (ip), vehicle: Klucel (hydroxypropylcellulose) (HPC)
[10] = dose: 400.0 mg/kg/injection, schedule: Q01DX009 (ip), vehicle: Klucel (hydroxypropylcellulose) (HPC)
[11] = dose: 400.0 mg/kg/injection, schedule: Q04DX003 (ip), vehicle: Klucel (hydroxypropylcellulose) (HPC)
[12] = dose: 100.0 mg/kg/injection, schedule: Q01DX001 (ip), vehicle: saline
[13] = dose: 200.0 mg/kg/injection, schedule: Q01DX001 (ip), vehicle: saline
[14] = dose: 50.0 mg/kg/injection, schedule: Q04DX003 (ip), vehicle: Klucel (hydroxypropylcellulose) (HPC)
[15] = dose: 100.0 mg/kg/injection, schedule: Q04DX003 (ip), vehicle: saline
[16] = dose: 75.0 mg/kg/injection, schedule: Q01DX001 (ip), vehicle: saline
[17] = dose: 150.0 mg/kg/injection, schedule: Q01DX001 (ip), vehicle: saline
[18] = dose: 100.0 mg/kg/injection, schedule: Q01DX009 (ip), vehicle: saline
[19] = dose: 200.0 mg/kg/injection, schedule: Q01DX009 (ip), vehicle: saline
[20] = dose: 400.0 mg/kg/injection, schedule: Q01DX009 (ip), vehicle: saline

Measured: T/C

c1ccc(C2CC3c4ccccc4C2c2cccc[n+]23)nc1 (stereo not drawn)
inactive: [1] 101 % of control | [2] 107 % of control

CNC(=O)NCCN(C)c1ccccc1
inactive: [3] 92 % of control | [4] 110 % of control | [5] 106 % of control

NC(=O)C1(O)C(Cl)(Cl)CCCC1(Cl)Cl
inactive: dose: 50.0 mg/kg/injection, schedule: Q01DX009 (ip), vehicle: saline with Tween-80 102 % of control | dose: 100.0 mg/kg/injection, schedule: Q01DX009 (ip), vehicle: saline with Tween-80 91 % of control | dose: 200.0 mg/kg/injection, schedule: Q01DX009 (ip), vehicle: saline with Tween-80 106 % of control

CCOC(=O)c1cc(C(=O)OCC)c(C#N)c(=O)[nH]1
inactive: [6] 103 % of control | [7] 100 % of control | [8] 88 % of control | [9] 88 % of control | [10] 94 % of control | [11] 98 % of control

CCCCCCCCCCOC(=O)c1ccccn1
inactive: [12] 93 % of control | [13] 87 % of control

CN(C(=O)c1c(Cl)[nH]c2ccccc12)c1ccccc1
inactive: dose: 25.0 mg/kg/injection, schedule: Q04DX003 (ip), vehicle: Klucel (hydroxypropylcellulose) (HPC) 96 % of control | [14] 95 % of control | [7] 90 % of control

N#C/C(=C\c1cccn1Cc1cc2ccccc2c2ccccc12)C(N)=O
inactive: dose: 25.0 mg/kg/injection, schedule: Q04DX002 (ip), vehicle: saline 105 % of control | dose: 50.0 mg/kg/injection, schedule: Q04DX002 (ip), vehicle: saline 108 % of control | dose: 100.0 mg/kg/injection, schedule: Q04DX002 (ip), vehicle: saline 119 % of control

CCOC(=O)C(=O)Nc1ncn[nH]1
inactive: dose: 100.0 mg/kg/injection, schedule: Q01DX005 (ip), vehicle: Klucel (hydroxypropylcellulose) (HPC) 95 % of control | [6] 96 % of control | [3] 96 % of control | dose: 200.0 mg/kg/injection, schedule: Q01DX005 (ip), vehicle: Klucel (hydroxypropylcellulose) (HPC) 98 % of control | [8] 104 % of control | [4] 90 % of control | dose: 400.0 mg/kg/injection, schedule: Q01DX005 (ip), vehicle: Klucel (hydroxypropylcellulose) (HPC) 103 % of control | [10] 93 % of control | [5] 101 % of control

CC1=C2CCC(C)CC23C2C(=O)OC(=O)C2C1C1C(=O)OC(=O)C13 (stereo not drawn)
inactive: dose: 25.0 mg/kg/injection, schedule: Q01DX009 (ip), vehicle: saline 100 % of control | dose: 50.0 mg/kg/injection, schedule: Q04DX003 (ip), vehicle: saline 101 % of control | [12] 93 % of control | [15] 90 % of control | [13] 108 % of control

C/C(=N/N=C(/C)c1ccccc1)c1ccccc1
inactive: [14] 110 % of control | [6] 96 % of control | [7] 94 % of control | [8] 100 % of control | [9] 103 % of control | [10] 96 % of control | [11] 97 % of control

COC(=O)CNC(=O)C(CC(C)C)NC(=O)C(CC(C)C)NC(=O)OC(C)(C)C (stereo not drawn) (Boc-Leu-Leu-Gly-OMe; configuration not given here)
inactive: [16] 106 % of control | [17] 98 % of control | dose: 300.0 mg/kg/injection, schedule: Q01DX001 (ip), vehicle: saline 98 % of control

COCCN1CCC(CN2c3ccccc3Sc3ccccc32)C1 (stereo not drawn)
inactive: [15] 111 % of control

CC(=O)Nc1ccc(NC(=O)c2cccc3ccccc23)cc1
inactive: dose: 50.0 mg/kg/injection, schedule: Q01DX009 (ip), vehicle: Klucel (hydroxypropylcellulose) (HPC) 90 % of control | [6] 98 % of control and 86 % of control and 90 % of control | [8] 86 % of control | [10] 87 % of control and 89 % of control

O=[N+]([O-])c1cccc(N=Cc2ccc3c(c2)OCO3)c1
inactive: [18] 96 % of control | [19] 93 % of control | [20] 100 % of control

O=C(O)CCc1ccccc1-c1ccccc1
inactive: dose: 50.0 mg/kg/injection, schedule: Q04DX002 (ip), vehicle: saline with Tween-80 96 % of control | dose: 100.0 mg/kg/injection, schedule: Q04DX002 (ip), vehicle: saline with Tween-80 101 % of control | dose: 200.0 mg/kg/injection, schedule: Q04DX002 (ip), vehicle: saline with Tween-80 96 % of control | dose: 400.0 mg/kg/injection, schedule: Q04DX002 (ip), vehicle: saline with Tween-80 107 % of control

CC(C)(C)OC(=O)NC(CO)C(=O)NC(Cc1ccc(OCc2ccccc2)cc1)C(=O)NCC(=O)O (stereo not drawn) (Boc-Ser-Tyr(Bn)-Gly-OH; configuration not given here)
inactive: dose: 50.0 mg/kg/injection, schedule: Q01DX005 (ip), vehicle: saline 100 % of control | dose: 200.0 mg/kg/injection, schedule: Q01DX005 (ip), vehicle: saline 105 % of control | dose: 400.0 mg/kg/injection, schedule: Q01DX005 (ip), vehicle: saline 91 % of control

NC(=O)C(F)(F)C(F)(F)C(F)(F)F
inactive: dose: 50.0 mg/kg/injection, schedule: Q01DX001 (ip), vehicle: Klucel (hydroxypropylcellulose) (HPC) 97 % of control | [1] 97 % of control | [2] 103 % of control

Cn1c(=O)c2c(nc(CCC3CCCC3)n2C)n(C)c1=O
inactive: dose: 50.0 mg/kg/injection, schedule: Q01DX001 (ip), vehicle: carboxymethylcellulose (CMC) 92 % of control | dose: 100.0 mg/kg/injection, schedule: Q01DX001 (ip), vehicle: carboxymethylcellulose (CMC) 97 % of control | dose: 200.0 mg/kg/injection, schedule: Q01DX001 (ip), vehicle: carboxymethylcellulose (CMC) 90 % of control | dose: 400.0 mg/kg/injection, schedule: Q01DX001 (ip), vehicle: carboxymethylcellulose (CMC) 97 % of control

O=C(O)c1cc2ccccc2c2cc(C(F)(F)F)ccc12
inactive: [16] 92 % of control | [17] 97 % of control

O=C(O)C(O)C(O)C(O)C(O)C(=O)O (stereo not drawn)
inactive: dose: 50.0 mg/kg/injection, schedule: Q01DX009 (ip), vehicle: saline 92 % of control | [18] 94 % of control | [7] 95 % of control | [19] 89 % of control | [9] 91 % of control | [20] 92 % of control | [11] 91 % of control | dose: 600.0 mg/kg/injection, schedule: Q01DX001 (ip), vehicle: saline 90 % of control | dose: 600.0 mg/kg/injection, schedule: Q01DX009 (ip), vehicle: saline 100 % of control | dose: 800.0 mg/kg/injection, schedule: Q01DX001 (ip), vehicle: saline 93 % of control and 90 % of control | dose: 800.0 mg/kg/injection, schedule: Q01DX009 (ip), vehicle: saline 97 % of control | dose: 1000.0 mg/kg/injection, schedule: Q01DX001 (ip), vehicle: saline 95 % of control and 88 % of control | dose: 1000.0 mg/kg/injection, schedule: Q01DX009 (ip), vehicle: saline 100 % of control
